The target of one test is RET kinase Wild Type (Homo sapiens, UniProt P07949). Description: biochemical.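 Note: HTRF kinase activity assay on RET enzyme, 1 h reaction at 22 °C, dual-wavelength readout as percent of control, DMSO-only wells as 100%, pre-quenched reactions as 0%.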
The next test has as its target G810S mutant RET kinase (Homo sapiens, UniProt P07949, G810S). Briefly: biochemical.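 Note: HTRF KinEASE-TK kinase assay with recombinant enzyme, 1 h at 22 °C, dual-wavelength ratiometric read-out, percent of control (DMSO-only = 100, pre-quenched reaction = 0).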
For a further test, the target named is RET kinase V804M (Homo sapiens, UniProt P07949, V804M). Description: RET Enzyme Assay (CisBio HTRF KinEASE-TK), V804M. It is filed as biochemical. The conditions noted are these: read-out: RET V804M Enz FRET IC50.
Another test concerns the target G810R mutant RET kinase (Homo sapiens, UniProt P07949, G810R). Description: biochemical.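 Note: HTRF KinEASE-TK enzymatic assay with 1 nM recombinant RET G810R, 1 h at 22 °C, dual-wavelength ratiometric readout, 100% control without compound, 0% from pre-quenched reactions.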
Test [1] deals with T1, HEK-293 cells expressing a G810R mutant RET Kif5b-RET fusion protein (Homo sapiens, UniProt P07949, G810R).
T1 construct: KIF5B (N-terminal portion incl. coiled-coil); expressed in transfected cells; host or cells: HEK-293; the other entry of the earlier key: KIF5B (P33176, Kinesin-1 heavy chain)
T1 sequence (P07949 713-1063 G810R limits assumed): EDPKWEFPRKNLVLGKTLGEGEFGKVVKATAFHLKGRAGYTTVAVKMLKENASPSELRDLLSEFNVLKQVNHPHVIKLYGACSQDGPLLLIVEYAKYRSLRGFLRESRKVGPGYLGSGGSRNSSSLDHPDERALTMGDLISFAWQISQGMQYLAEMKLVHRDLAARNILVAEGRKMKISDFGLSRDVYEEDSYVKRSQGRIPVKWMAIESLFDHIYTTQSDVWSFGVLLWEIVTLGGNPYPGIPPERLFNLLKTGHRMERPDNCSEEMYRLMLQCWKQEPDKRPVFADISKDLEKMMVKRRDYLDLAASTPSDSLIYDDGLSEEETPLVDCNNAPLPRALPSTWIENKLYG
Description: RET G810R Mutant Cell Assay (phospho-RET Tyr1062). The conditions noted are these: HEK-293 Kif5b-RET G810R, 1 hour incubation, phospho-RET normalized to GAPDH. Type of test: cell-based. The procedure:
(§1) The cellular potency of compounds inhibiting RET kinase were determined in HEK-293 cells expressing a G810R or G810S mutant RET Kif5b-RET fusion protein. Briefly, HEK-293 cells expressing a G810R or G810S mutant RET Kif5b-RET fusion protein were plated at 50K cells/well in 96 well poly-D-Lysine coated plates the day prior to the assay. The cells were incubated for 1 hour with test compound in DMEM (Dulbecco's Modified Eagle Medium) at a final DMSO concentration of 0.5%. […] After 1 hour the media was removed, the cells were fixed with 3.8% formaldehyde for 20 min, washed with PBS, and permeabilized for 10 min with 100% methanol. The plates were then washed with PBS-0.05% Tween20, and blocked with LI-COR Blocking solution (LI-COR Catalog No. 927-40000) for 1 hour. Plates were washed with PBS-0.05% Tween20, then incubated with anti-phospho-RET (Tyr1062) (Santa Cruz Catalog No. sc-20252-R) antibody and anti-GAPDH (Millipore Catalog No. MAB374) antibody for 2 hours. The plates were washed with PBS-0.05% Tween20, and incubated with anti-rabbit 680 (Molecular Probes Catalog No. A21109) and anti-mouse 800 (LI-COR Catalog No. 926-32210) secondary antibodies for 1 hour. All antibodies were diluted in LI-COR Block containing 0.05% Tween. The plates were washed with PBS-0.05% Tween20,100 μL PBS was added to each well, and the plates were read on a LI-COR Aerius fluorescent plate reader. The phospho-RET signal was normalized to the GAPDH signal. […] The POC values are fit to a 4 parameter logistic curve. The IC50 value is the point where the curve crosses 50 POC.

Test [2] addresses T2, HEK-293 cells expressing a Kif5b-RET fusion protein (Homo sapiens, UniProt P07949).
T2 construct: KIF5B (N-terminal portion incl. coiled-coil); expressed in transfected cells; host or cells: HEK-293; the other entry of the earlier key: KIF5B (P33176, Kinesin-1 heavy chain)
T2 sequence (P07949 713-1063 limits assumed): T1 sequence (P07949 713-1063 G810R limits assumed) with R98G
Briefly: RET Cell Assay (phospho-RET Tyr1062). Type of test: cell-based. The conditions noted are these: HEK-293 Kif5b-RET, 1 hour incubation, phospho-RET normalized to GAPDH; read-out: KIF5B-RET pTYR1062 Cell IC50. The procedure: as §1, with “a” for “a G810R or G810S mutant RET”, “PBS is” for “PBS was”, “values were” for “values are”

Each structure is given as a SMILES string. Substitutions are numbered along the chain they refer to.

Sequence of RET kinase Wild Type (P07949 29-1114): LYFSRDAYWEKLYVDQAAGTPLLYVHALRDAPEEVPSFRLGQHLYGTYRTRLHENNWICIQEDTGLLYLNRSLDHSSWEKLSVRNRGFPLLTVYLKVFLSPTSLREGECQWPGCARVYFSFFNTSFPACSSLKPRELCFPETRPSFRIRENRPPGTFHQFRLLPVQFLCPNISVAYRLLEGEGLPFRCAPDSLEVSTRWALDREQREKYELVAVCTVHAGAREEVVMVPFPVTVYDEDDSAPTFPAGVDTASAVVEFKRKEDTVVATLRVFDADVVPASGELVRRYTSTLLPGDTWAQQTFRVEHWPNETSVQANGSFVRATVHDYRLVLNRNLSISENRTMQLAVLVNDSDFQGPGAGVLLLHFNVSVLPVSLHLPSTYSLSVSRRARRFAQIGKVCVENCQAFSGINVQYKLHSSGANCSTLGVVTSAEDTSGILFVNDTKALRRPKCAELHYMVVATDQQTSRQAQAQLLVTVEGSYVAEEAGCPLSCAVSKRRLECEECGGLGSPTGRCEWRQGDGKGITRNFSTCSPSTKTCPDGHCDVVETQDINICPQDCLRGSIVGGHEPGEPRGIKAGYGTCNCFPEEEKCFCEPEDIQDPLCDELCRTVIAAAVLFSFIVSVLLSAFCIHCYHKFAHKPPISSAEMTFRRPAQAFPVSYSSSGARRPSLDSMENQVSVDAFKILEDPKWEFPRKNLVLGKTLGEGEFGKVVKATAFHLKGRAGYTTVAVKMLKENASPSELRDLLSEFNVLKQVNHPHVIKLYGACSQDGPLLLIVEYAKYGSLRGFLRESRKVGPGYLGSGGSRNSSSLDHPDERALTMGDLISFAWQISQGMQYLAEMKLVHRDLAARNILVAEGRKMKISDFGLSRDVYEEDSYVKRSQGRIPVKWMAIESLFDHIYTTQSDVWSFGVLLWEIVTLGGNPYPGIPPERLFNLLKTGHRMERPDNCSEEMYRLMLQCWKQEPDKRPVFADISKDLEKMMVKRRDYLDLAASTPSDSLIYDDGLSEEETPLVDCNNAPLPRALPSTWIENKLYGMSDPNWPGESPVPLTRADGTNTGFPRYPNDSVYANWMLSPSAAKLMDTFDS
Sequence of G810S mutant RET kinase (P07949 29-1114 G810S): as the sequence (P07949 29-1114) above, with G782S counted along it
Sequence of RET kinase V804M (P07949 29-1114 V804M): as the sequence (P07949 29-1114) above, with V776M counted along it
Sequence of G810R mutant RET kinase (P07949 29-1114 G810R): as the sequence (P07949 29-1114) above, with G782R counted along it
Description for RET kinase Wild Type: The potency of compounds inhibiting several different RET kinase forms (Wild Type, V804M, G810R, & G810S) were determined using CisBio's HTRF® KinEASE™-TK assay technology. […] After a 1 hour incubation at 22° C., the extent of reaction was determined using a PerkinElmer EnVision multimode plate reader via HTRF dual wavelength detection, and the percent of control (POC) was calculated using a ratiometric emission factor. One hundred POC was determined using DMSO only samples (no compound present), and 0 POC was determined using pre-quenched control reactions.

`CC(C)n1c2c(c3c(N)ncnc31)-c1noc(C3CC3)c1CN(c1ccn(C)n1)C2` [Example 34, 3-cyclopropyl-7-isopropyl-5-(1-methyl-1H-pyrazol-3-yl)-4,5,6,7-tetrahydroisoxazolo[4,3-c]pyrimido[5′,4′:4,5]pyrrolo[3,2-e]azepin-11-amine]: the IC50 (usually the concentration at which inhibition is half-maximal) at RET kinase Wild Type is 227 nM; against G810S mutant RET kinase it was 397 nM; on RET kinase V804M it was 805 nM; against G810R mutant RET kinase, 288 nM.
For `CC(C)n1c2c(c3c(N)ncnc31)-c1noc(C3CC3)c1CN(C(=O)C1CC1)C2` [Example 38, (11-amino-3-cyclopropyl-7-isopropyl-6,7-dihydroisoxazolo[4,3-c]pyrimido[5′,4′:4,5]pyrrolo[3,2-e]azepin-5(4H)-yl)(cyclopropyl)methanone] the same measures were 342 nM, 921 nM, 3120 nM and 649 nM.
As for `CC(C)n1c2c(c3c(N)ncnc31)-c1noc(C3CC3)c1CN(CCO)C2` [Example 40, 2-(11-amino-3-cyclopropyl-7-isopropyl-6,7-dihydroisoxazolo[4,3-c]pyrimido[5′,4′:4,5]pyrrolo[3,2-e]azepin-5(4H)-yl)ethan-1-ol 2,2,2-trifluoroacetate], the IC50 against RET kinase Wild Type was found to be 621 nM; against G810S mutant RET kinase, 973 nM; at RET kinase V804M it was 2200 nM; against G810R mutant RET kinase it was 724 nM.
For `CC(C)n1c2c(c3c(N)ncnc31)-c1ccc(Cl)cc1C(=O)NC2` [Example 45, 12-amino-3-chloro-8-isopropyl-7,8-dihydrobenzo[c]pyrimido[5′,4′:4,5]pyrrolo[3,2-e]azepin-5(6H)-one], the IC50 against RET kinase Wild Type stood at 194 nM; at G810S mutant RET kinase it was 557 nM; against G810R mutant RET kinase it was 275 nM; in test [1], 814 nM; in test [2] it was 344 nM.
For the compound `Nc1ncnc2[nH]c3c(c12)-c1noc(C2CC2)c1C(=O)NC3` [Example 66, 11-amino-3-cyclopropyl-6,7-dihydroisoxazolo[4,3-c]pyrimido[5′,4′:4,5]pyrrolo[3,2-e]azepin-4(5H)-one 2,2,2-trifluoroacetate], the IC50 is 1790 nM on RET kinase Wild Type, 2300 nM against G810S mutant RET kinase, 6830 nM at RET kinase V804M and 2180 nM against G810R mutant RET kinase.
For `Nc1ncnc2[nH]c3c(c12)-c1noc(C2CC2)c1C(=O)CC3` [Example 111, 11-amino-3-cyclopropyl-6,7-dihydroisoxazolo[4″,3″:6′,7′]cyclohepta[1′,2′:4,5]pyrrolo[2,3-d]pyrimidin-4(5H)-one] the same measures were 3440 nM, 2710 nM, 6240 nM and 3300 nM.
On to `COc1ccc(-n2c3c(c4c(N)ncnc42)-c2noc(C4CC4)c2C(O)CC3)cn1` (stereo not shown) [Example 114, 11-Amino-3-cyclopropyl-7-(6-methoxypyridin-3-yl)-4,5,6,7-tetrahydroisoxazolo[4″,3″:6′,7′]cyclohepta[1′,2′:4,5]pyrrolo[2,3-d]pyrimidin-4-ol 2,2,2-trifluoroacetate], for which the IC50 turned out to be 357 nM at RET kinase Wild Type, 282 nM against G810S mutant RET kinase, 1050 nM on RET kinase V804M and 435 nM at G810R mutant RET kinase.
`CC(=O)N1CCC(n2c3c(c4c(N)ncnc42)-c2noc(C4CC4)c2C(O)CC3)C1` (stereo not shown) [Example 134, 1-(3-(11-amino-3-cyclopropyl-4-hydroxy-5,6-dihydroisoxazolo[4″,3″:6′,7′]cyclohepta[1′,2′:4,5]pyrrolo[2,3-d]pyrimidin-7(4H)-yl)pyrrolidin-1-yl)ethan-1-one 2,2,2-trifluoroacetate]: the IC50 came to 112 nM against RET kinase Wild Type, 488 nM against G810S mutant RET kinase, 355 nM at RET kinase V804M and 560 nM against G810R mutant RET kinase.
For `Nc1ncnc2c1c1c(n2[C@H]2C[C@@H](CO)C2)CCC(O)c2c-1noc2C1CC1` (stereo partly shown) [Example 136, 11-Amino-3-cyclopropyl-7-((1s,3s)-3-(hydroxymethyl)cyclobutyl)-4,5,6,7-tetrahydroisoxazolo[4″,3″:6′,7′]cyclohepta[1′,2′:4,5]pyrrolo[2,3-d]pyrimidin-4-ol 2,2,2-trifluoroacetate] the same measures were 201 nM, 817 nM, 551 nM and 274 nM.
For `CC(C)(O)[C@H]1C[C@@H](n2c3c(c4c(N)ncnc42)-c2noc(C4CC4)c2C(O)CC3)C1` (stereo partly shown) [Example 138, 11-Amino-3-cyclopropyl-7-((1s,3s)-3-(2-hydroxypropan-2-yl)cyclobutyl)-4,5,6,7-tetrahydroisoxazolo[4″,3″:6′,7′]cyclohepta[1′,2′:4,5]pyrrolo[2,3-d]pyrimidin-4-ol 2,2,2-trifluoroacetate] the same measures were 143 nM, 646 nM, 376 nM and 272 nM.
Taken in the same sequence, the figures for `Nc1ncnc2c1c1c(n2C2CCOC2)CCC(=O)c2c-1noc2C1CC1` (stereo not shown) [Example 141, 11-Amino-3-cyclopropyl-7-(tetrahydrofuran-3-yl)-6,7-dihydroisoxazolo[4″,3″:6′,7′]cyclohepta[1′,2′:4,5]pyrrolo[2,3-d]pyrimidin-4(5H)-one] were 139 nM, 405 nM, 415 nM and 211 nM.
For `Nc1ncnc2c1c1c(n2C2CC(F)(F)C2)CCC(O)c2c-1noc2C1CC1` (stereo not shown) [Example 148, 11-amino-3-cyclopropyl-7-(3,3-difluorocyclobutyl)-4,5,6,7-tetrahydroisoxazolo[4″,3″:6′,7′]cyclohepta[1′,2′:4,5]pyrrolo[2,3-d]pyrimidin-4-ol 2,2,2-trifluoroacetate], the IC50 on RET kinase Wild Type is 183 nM; at G810S mutant RET kinase, 758 nM; at RET kinase V804M, 216 nM; at G810R mutant RET kinase, 154 nM.

For the origin of these results see patent US11964988B2, “Fused heterocyclic compounds as RET kinase inhibitors” (ARRAY BIOPHARMA INC., priority 2018, dated 2024).
